The IC50 is the point on the concentration scale where inhibition reaches its midpoint.

In the assay the target is T1, ACC1 from rat liver (Rattus norvegicus, UniProt P11497).
T1 construct: The livers (for ACC1 preparation) or skeletal muscle tissue (for ACC2 preparation) are removed; from tissue; host or cells: liver of male CD rats (fasted, then fed a high sucrose diet)
Nature of the assay: Direct inhibition of ACC1 activity (14C-bicarbonate incorporation). The format is biochemical. The essentials: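 ACC1 partially purified from livers of fasted/sucrose-refed male rats by PEG and ammonium sulfate fractionation, then preincubated 30 min at 37°C with 10 mM citrate and 1.0 mM MgCl2. Reaction ran 7 min at 37°C, stopped with HCl; acid-stable radioactivity counted by scintillation; HCl-first tubes served as blanks.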

Where a name gives a salt, the structure may show the parent alone. Some results are limits rather than exact numbers.

Regarding `CCOc1ccc(-c2cc[nH]n2)cc1C(=O)N1CCC2(CC1)CC(=O)c1cc(Cl)c(C)cc1O2` [Ex. P9, 6-chloro-1′-[2-ethoxy-5-(1H-pyrazol-3-yl)benzoyl]-7-methylspiro[chromene-2,4′-piperidin]-4(3H)-one], the IC50 (Table of Examples P1-P15) is 1060 nM.

For the compound `Cc1cc2c(c(C)c1Cl)C(=O)CC1(CCN(C(=O)c3cccc(-c4cc[nH]n4)c3)CC1)O2` [M22, 6-chloro-5,7-dimethyl-1′-[3-(1H-pyrazol-3-yl)benzoyl]spiro[chromene-2,4′-piperidin]-4(3H)-one], half-maximal inhibition (Table of Examples M1-M36) (IC50) required 452 nM.

Consider `O=C1CC2(CCN(C(=O)c3cccc(-c4cc[nH]n4)c3)CC2)Oc2cc(Cl)ccc21` [Ex. M15, 7-chloro-1′-[3-(1H-pyrazol-3-yl)benzoyl]spiro[chromene-2,4′-piperidin]-4(3H)-one], for which the IC50 (Table of Examples M1-M36) stood at 233 nM.

Turning to `Cn1ccc2ccc(C(=O)N3CCC4(CC3)CC(=O)c3cc(Cl)ccc3O4)cc21` [Ex. L5, 6-chloro-1′-[(1-methyl-1H-indol-6-yl)carbonyl]spiro[chromene-2,4′-piperidin]-4(3H)-one], for the setting “ACC1 from rat liver”, the IC50 is less than 1000 nM.

For the setting “ACC1 from rat liver”, `O=C1CC2(CCN(C(=O)c3ccc4nc[nH]c4c3)CC2)Oc2ccc(Cl)cc21` [Ex. L34] showed an IC50 greater than 1000 nM.

In the case of `COc1cccc2c1C(=O)CC1(CCN(C(=O)c3cccc4cn[nH]c34)CC1)O2` [Ex. H20, 1′-(1H-indazol-7-ylcarbonyl)-5-methoxyspiro[chromene-2,4′-piperidin]-4(3H)-one], the midpoint of inhibition (ACC1 from rat liver), the IC50, lay at 2430 nM.

Turning to `CCc1cc(C(=O)N2CCC3(CC2)CC(=O)c2cc(OC)ccc2O3)cc2cn[nH]c12` [Ex. C2, 1′-[(7-ethyl-1H-indazol-5-yl)carbonyl]-6-methoxyspiro[chromene-2,4′-piperidin]-4(3H)-one], the IC50 (ACC1 from rat liver) stood at 22.6 nM.

`COC(=O)c1ccc2c(c1)C(=O)CC1(CCN(C(=O)c3ccc4c(C)n[nH]c4c3)CC1)O2` [Ex. F4, methyl 1′-[(3-methyl-1H-indazol-6-yl)carbonyl]-4-oxo-3,4-dihydrospiro[chromene-2,4′-piperidine]-6-carboxylate]: where the note is “ACC1 from rat liver”, 126 nM corresponded to half-maximal inhibition (IC50).

`COc1cccc2c1C(=O)CC1(CCN(C(=O)c3cc(C)c4[nH]ncc4c3)CC1)O2` [Ex. A25, 5-methoxy-1′-[(7-methyl-1H-indazol-5-yl)carbonyl]spiro[chromene-2,4′-piperidin]-4(3H)-one] yielded a 50% inhibitory concentration (IC50) (ACC1 from rat liver) of 112 nM.

In the case of `Cc1cc2c(cc1C)C(=O)CC1(CCN(C(=O)c3cc(-c4cc[nH]n4)ccc3O)CC1)O2` [Ex. P6, 1′-[2-hydroxy-5-(1H-pyrazol-3-yl)benzoyl]-6,7-dimethylspiro[chromene-2,4′-piperidin]-4(3H)-one trifluoroacetic acid salt], the half-maximal inhibitory concentration (IC50) (Table of Examples P1-P15) was less than 3000 nM.

In turn, `COc1ccc2c(c1F)C(=O)CC1(CCN(C(=O)c3cccc(-c4cc[nH]n4)c3)CC1)O2` [Ex. M14, 5-fluoro-6-methoxy-1′-[3-(1H-pyrazol-3-yl)benzoyl]spiro[chromene-2,4′-piperidin]-4(3H)-one] displayed a concentration for half-maximal inhibition (IC50) (Table of Examples M1-M36) of 223 nM.

In the case of `Cc1cc2c(cc1C)C(=O)CC1(CCN(C(=O)c3ccc4cn[nH]c4c3)CC1)O2` [Ex. G1, 1-(1H-indazol-6-ylcarbonyl)-6,7-dimethylspiro[chromene-2,4′-piperidin]-4(3H)-one trifluoroacetic acid salt], the half-maximal inhibitory concentration (IC50) (ACC1 from rat liver) turned out to be 271 nM.

Consider `COc1cccc2c1C(=O)CC1(CCN(C(=O)c3ccc4[nH]cc(Cl)c4c3)CC1)O2` [Ex. L10, 1′-[(3-chloro-1H-indol-5-yl)carbonyl]-5-methoxyspiro[chromene-2,4′-piperidin]-4(3H)-one], for which it took 101 nM to reach half-maximal inhibition (ACC1 from rat liver) (IC50).

Where the note is “Table of Examples M1-M36”, `CS(=O)(=O)c1ccc2c(c1)C(=O)CC1(CCN(C(=O)c3cccc(-c4cc[nH]n4)c3)CC1)O2` [M20, 6-(methylsulfonyl)-1′-[3-(1H-pyrazol-3-yl)benzoyl]spiro[chromene-2,4′-piperidin]-4(3H)-one] yielded a 50% inhibitory concentration (IC50) of 434 nM.

`CCOc1ccc(-c2cc[nH]n2)cc1C(=O)N1CCC2(CC1)CC(=O)c1cc(C)c(C)cc1O2` [Ex. P8, 1′-[2-ethoxy-5-(1H-pyrazol-3-yl)benzoyl]-6,7-dimethylspiro[chromene-2,4′-piperidin]-4(3H)-one] showed an IC50 (Table of Examples P1-P15) of 621 nM.

Under “ACC1 from rat liver”, `Cc1cc(C(=O)N2CCC3(CC2)CC(=O)c2cc(C(=O)O)ccc2O3)cc2cn[nH]c12` [Ex. A33, 1′-[(7-methyl-1H-indazol-5-yl)carbonyl]-4-oxo-3,4-dihydrospiro[chromene-2,4′-piperidine]-6-carboxylic acid trifluoroacetic acid salt] returned an IC50 of 303 nM.

Regarding `Cc1cc2c(cc1C)C(=O)CC1(CCN(C(=O)c3ccc4c(c3)nnn4C)CC1)O2` [Ex. L41, 6,7-dimethyl-1′-[(1-methyl-1H-1,2,3-benzotriazol-5-yl)carbonyl]spiro[chromene-2,4′-piperidin]-4(3H)-one], the IC50 (ACC1 from rat liver) was less than 3000 nM.

In the case of `Cc1ccc2c(c1)C(=O)CC1(CCN(C(=O)c3cccc(-c4cc[nH]n4)c3)CC1)O2` [Ex. M23, 6-methyl-1′-[3-(1H-pyrazol-3-yl)benzoyl]spiro[chromene-2,4′-piperidin]-4(3H)-one], the IC50 (Table of Examples M1-M36) turned out to be 475 nM.

Where the note is “Table of Examples M1-M36”, `COC(=O)c1ccc2c(c1)C(=O)CC1(CCN(C(=O)c3cccc(-c4cc[nH]n4)c3)CC1)O2` [Ex. M11, methyl 4-oxo-1′-[3-(1H-pyrazol-3-yl)benzoyl]-3,4-dihydrospiro[chromene-2,4′-piperidine]-6-carboxylate] had a half-inhibitory concentration (IC50) of 202 nM.

In the case of “1′-1H-indol ylcarbonyl)-6,7-dimethylspiro[chromene-2,4′-piperidin]-4(3H)-one trifluoroacetic acid salt [Ex. L14]”, the IC50 (ACC1 from rat liver) was 479 nM.

In the case of `COc1cc(Cl)cc2c1C(=O)CC1(CCN(C(=O)c3cc(C)c4[nH]ncc4c3)CC1)O2` [Ex. A19, 7-chloro-5-methoxy-1′-[(7-methyl-1H-indazol-5-yl)carbonyl]spiro[chromene-2,4′-piperidin]-4(3H)-one], the half-inhibitory concentration (IC50) (ACC1 from rat liver) amounted to 81.5 nM.

In turn, “1′-[(7-bromo-1H-indazol-6-yl)carbonyl]-6-chlorospiro[chromene-2,4′-piperidin]-4(3H)-one [Ex. G5]” had a half-maximal inhibitory concentration (IC50) (ACC1 from rat liver) greater than 1000 nM.

`CNC(=O)c1ccc2c(c1)C(=O)CC1(CCN(C(=O)c3cc(C)c4[nH]ncc4c3)CC1)O2` [Ex. A5, N-methyl-1′-[(7-methyl-1H-indazol-5-yl)carbonyl]-4-oxo-3,4-dihydrospiro[chromene-2,4′-piperidine]-6-carboxamide] registered an IC50 (ACC1 from rat liver) of 29.5 nM.

For `Cc1cc2c(cc1C)C(=O)CC1(CCN(C(=O)c3cccc(-c4cc(C(F)(F)F)[nH]n4)c3)CC1)O2` [Ex. P1, 6,7-dimethyl-1′-{3-[5-(trifluoromethyl)-1H-pyrazol-3-yl]benzoyl}spiro-[chromene-2,4′-piperidin]-4(3H)-one], 215 nM corresponded to half-maximal inhibition (Table of Examples P1-P15) (IC50).

Compound `Cc1cc2c(cc1Cl)C(=O)CC1(CCN(C(=O)c3ccc4[nH]nnc4c3)CC1)O2` [Ex. L40, 1′-(1H-1,2,3-benzotriazol-5-ylcarbonyl)-6-chloro-7-methylspiro[chromene-2,4′-piperidin]-4(3H)-one] gave a half-inhibitory concentration (IC50) (ACC1 from rat liver) of 4860 nM.

On to `Cc1cc2c(cc1C)C(=O)CC1(CCN(C(=O)c3ccc4[nH]c5c(c4c3)CCNC5=O)CC1)O2` [Ex. K1, 6,7-dimethyl-1′-[(1-oxo-2,3,4,9-tetrahydro-1H-beta-carbolin-6-yl)carbonyl]spiro[chromene-2,4′-piperidin]-4(3H)-one], for which the 50% inhibitory concentration (IC50) (ACC1 from rat liver) was 9.98 nM.

`N#Cc1ccc2c(c1)C(=O)CC1(CCN(C(=O)c3cc(Cl)c4[nH]ncc4c3)CC1)O2` [Ex. B14, 1′-[(7-chloro-1H-indazol-5-yl)carbonyl]-4-oxo-3,4-dihydrospiro[chromene-2,4-piperidine]carbonitrile]: half-maximal inhibition (ACC1 from rat liver) (IC50) was put at 331 nM.

For the setting “ACC1 from rat liver”, `CCc1cc(C(=O)N2CCC3(CC2)CC(=O)c2c(OC)cc(C)cc2O3)cc2cn[nH]c12` [Ex. C3, 1′-[(7-ethyl-1H-indazol-5-yl)carbonyl]-5-methoxy-7-methylspiro[chromene-2,4′-piperidin]-4(3H)-one] gave an IC50 of 29.5 nM.

Where the note is “ACC1 from rat liver”, `Cc1cc2c(cc1C)C(=O)CC1(CCN(C(=O)c3cccc4c3ccn4C)CC1)O2` [Ex. L15, 6,7-dimethyl-1′-[(1-methyl-1H-indol-4-yl)carbonyl]spiro[chromene-2,4′-piperidin]-4(3H)-one] came in with an IC50 of 415 nM.

These data come from patent US20090270435A1 (priority 2006, published 2009).
